Assays:
Format in all cases: physicochemical
[1] = Absorption strength (absorption spectrum in ethanol); conditions: for λmax: absorption maximum, dilute solution; for λmax / Half-value width / intense absorption up to / spectral range covered compared with curcumin and beta-carotene: in ethanol; for E1 % value: extinction at the absorption maximum extrapolated to a concentration of 1 g/100 ml, ethanol; for Half-value width: half-value width of the absorption band
Experimental: The measure used for the absorption strength is the so-called E1% value, and the half-value width of the absorption band in relation to the absorption maximum λmax indicated. The E1% value indicates the extinction at the absorption maximum extrapolated to a concentration of 1 g/100 ml. To this end, an absorption spectrum of the substance in ethanol is recorded in dilute solution. The values are compared with the reference spectra of curcumin and beta-carotene.

[2] = Thermal stability by thermographic method (TGA); conditions: for Temperature at which 98% of the weight was still present: TGA, RT to 800° C., heating rate 10 K/min
Experimental: The thermal stability is determined with the aid of the thermographic method (instrument TGA Q5000 V3.10 Build 258, temperature range RT to 800° C., heating rate 10 K/min).

[3] = Fluorescence measurements in ethanol; conditions: 0.00804-0.00820 mg/ml, cell thickness 1 cm
Experimental: The substance concentrations in ethanol indicated in the table are measured using an Aminco Bowman 2 fluorescence spectrometer (cell thickness 1 cm; excitation 220-600 nm; emission 220-800 nm; spectral gap width (excitation) 4 nm, (emission) 8 nm; recording speed 10 nm/min; step width (excitation) 5 nm, (emission) 4 nm.

[4] = Solubility determination in phenethyl benzoate (X-Tend 226)
Experimental: The solubility determination was carried out in phenethyl benzoate (X-Tend 226): […]

Compound	λmax [1] [nm]	E1 % value [1]	Half-value width [1]	Temperature at which 98% of the weight was still present [2] [°C]	thermal stability (in words) [2]	intense absorption up to [1]	spectral range covered compared with curcumin and beta-carotene [1]	Emission [3] [nm]	Solubility in X-Tend 226 [4] [%]	Excitation [3] [nm]
COc1cc(OC)c(OC)cc1/C=C1\Oc2ccc(C)cc2O/C(=C\c2cc(OC)c(OC)cc2OC)C1=O [Example 1, 7-methyl-2,4-bis[1-(2,4,5-trimethoxyphenyl)meth-(Z)-ylidene]benzo[b]-1,4-dioxepin-3-one]	437	505	approx. 102 nm	281	excellent	up to 539 nm	significantly greater spectral range	412	2.2	
COc1ccc(/C=C2\Oc3ccc(C)cc3O/C(=C\c3ccc(OC)cc3)C2=O)cc1 [Example 2, 2,4-bis[1-(4-methoxyphenyl)meth-(Z)-ylidene]-7-methylbenzo[b]-1,4-dioxepin-3-one]						up to 478 nm				
COc1ccc(/C=C2\Oc3ccc(C)cc3O/C(=C\c3ccc(OC)c(OC)c3)C2=O)cc1OC [Example 3, 2,4-bis[1-(3,4-dimethoxyphenyl)-meth-(Z)-ylidene]-7-methylbenzo[b]-1,4-dioxepin-3-one]	369	515	approx. 100 nm	286	excellent		significantly greater spectral range	322	4.5	230
CCCCN(CCCC)c1ccc(/C=C2\Oc3ccc(C)cc3O/C(=C\c3ccc(N(CCCC)CCCC)cc3)C2=O)cc1 [Example 8, 7-methyl-2,4-bis[1-(4-dibutylaminophenyl)meth-(Z)-ylidene]benzo[b]-1,4-dioxepin-3-one]	484	571	approx. 122 nm	250	excellent	up to 609 nm	significantly greater spectral range	320	5.0	260

Continued, values first:

λmax [1] [nm]	E1 % value [1]	Half-value width [1]	Temperature at which 98% of the weight was still present [2] [°C]	thermal stability (in words) [2]	intense absorption up to [1]	spectral range covered compared with curcumin and beta-carotene [1]	Emission [3] [nm]	Solubility in X-Tend 226 [4] [%]	Excitation [3] [nm]	Compound
453	408	approx. 88 nm	84							CC1=C(/C=C/C(C)=C/C=C/C(C)=C/C=C/C=C(C)/C=C/C=C(C)/C=C/C2=C(C)CCCC2(C)C)C(C)(C)CCC1 [Beta-carotene, beta-carotene, reference compound]
426	1507	approx. 78 nm	223	not thermally stable						COc1cc(/C=C/C(=O)CC(=O)/C=C/c2ccc(O)c(OC)c2)ccc1O [Curcumin, curcumin, reference compound]

— patent US8907110B2, “Benzodioxepin-3-one compounds as dyes or as fluorescent emitters” (Merck Patent GmbH, priority 2011, dated 2014)
